From patent US20260199481A1, “PROTEIN DEGRADATION TARGETING CHIMERA COMPOUND, COMPOSITION THEREOF, AND USE THEREOF” (TSINGHUA UNIVERSITY, priority 2022, published 2026)
Where two headings read alike, the source gives them in different places.

Tests used:
[1] = test system: MCF-7 cells; assay: In vitro anti-tumor effect, CellTiter 96 viability assay; assay type: cell-based; settings: Homo sapiens, MCF7, light or radiation study
Method: Experimental Procedure: MCF-7 cells in the logarithmic growth phase were used for the experiment. The cells were seeded at 5000 cells per well in 96-well plates and incubated for 24 hours at 37° C. The cells were treated with Example compounds A1-D3 for 3 h. Subsequently, the irradiated group was irradiated with 10-30 Gy of X-rays, and the cells were continued to be incubated until 72 h after completion of irradiation. At the end of drug treatment, 20 μL of CellTiter 96° solution was added to each well. The well plates were incubated in an incubator for 2-4 hours, and then the absorbance was measured using a plate reader. Data were analyzed with GraphPad Prism software to obtain the IC50 values of each test compound.

[2] = test system: MCF-7 cell line; assay: In vivo anti-tumor activity, MCF-7 tumor model; parameters: species or system BALB/c nude mice; settings: 10 mg/kg subcutaneous injection
Method: To investigate the in vivo activation and antitumor activity of the PROTAC compound AS2 and X-ray-responsive PROTAC compound A1, we performed in vivo antitumor activity studies. The MCF-7 cell line was selected, and experiments were performed in BALB/c nude mice. Experimental animals: BALB/c nude mice (female; 6-8 weeks old) were all purchased from Beijing Vital River Laboratory Animal Technology Co., Ltd and housed in pathogen-free conditions with standard temperature and humidity at the Laboratory Animal Resources Center of Tsinghua University. All animal experiments were approved by the Animal Ethics Committee of Tsinghua University. Tumor model establishment: MCF-7 cells in logarithmic growth phase were taken, and 0.25% trypsin was added to digest the cells after washing the cells for 3 times with pre-cooled PBS buffer. The digested cells were centrifuged at 1000 rpm/min for 5 min, the precipitate was discarded, and the cells were resuspended with pre-cooled PBS and carefully blown to make a single-cell solution. After the cells were counted by a counter, the cell density was adjusted to 1×10^7 cells/mL, and 10 mL was taken into a centrifuge tube and stored on ice. Before inoculation of cancer cells, nude mice were gently wiped under the skin of the right axilla with a paper towel sprayed with 75% alcohol. A 1 mL disposable syringe was used to aspirate 200 μL of cell suspension, and the air in the needle was removed, and a single subcutaneous injection was carried out by puncturing about 1 cm forward from the needle inlet site. The needle was withdrawn slowly to avoid fluid leakage. Observe the tumor growth status daily. Drug administration: When the tumor volume reached 120 mm^3, the tumor-bearing mice were randomly grouped. Six groups were set up, namely PBS, PROTAC drug AS2, PROTAC prodrug A1, PBS+X-ray irradiation, PROTAC drug AS2+X-ray irradiation, and PROTAC prodrug A1+X-ray irradiation. Each drug was dispersed in the following solution: 1.25% DMSO+20% PEG+5% Tween 80+73.75% dd H2O; administered dose: 10 mg/kg; subcutaneous injection. X-ray irradiation was performed 3 hours after drug injection. The irradiation dose was 5 Gy. Tumor size and body weight were monitored every other day. Tumor volume was calculated using the formula: tumor volume=length×width^2/2. After 16 days of monitoring, mice in each group were euthanized, and tumors and major organs were collected.

[3] = target: T1, BRD4 (Homo sapiens, UniProt O60885); assay: Protein degradation activity, Western blotting of BRD4 in MCF-7 cells; assay type: cell-based
T1 construct: endogenous in cells; host or cells: MCF-7
Method: Cell treatment: MCF-7 cells in the logarithmic growth phase were taken for the experiment. Cells were inoculated in six-well plates at a density of 5.0×10^5 cells/per well and incubated at 37° C. for 24 hours. […]
Whole cell protein extraction: After completion of drug treatment, the culture medium was discarded, and the cells were washed 3 times with pre-cooled PBS. Cells were scraped off using a cell scraper, and the resulting solution was carefully aspirated and centrifuged at 300 g for 5 min at 4° C. to obtain cells, which were washed with PBS, resuspended, and centrifuged under the same conditions.
Cell lysis: Cells were washed with pre-cooled PBS and lysed in pre-cooled lysis buffer (containing 1% protease and phosphatase inhibitor) for 30 min, and cells were vigorously vortexed several times during lysis. After lysis was completed, the cells were centrifuged at 11,000 g for 15 min at 4° C., and the supernatant was collected as whole cell protein.
Protein denaturation: protein concentration was measured by Bradford assay. Proteins were diluted using 4× Protein Sampling Buffer. Subsequently, the proteins were denatured by heating in a metal bath at 100° C. for 15 min.
Protein Immunoblotting Assay (Western Blotting, WB) was Performed to Quantify BRD4 Protein:
1) Protein electrophoresis: proteins were separated in 4-12% or 4-20% Bis-Tris SDS-PAGE gels. The appropriate volume of the above cell whole protein extract was added to the lanes of the above SDS-PAGE gel. Turn on the power and electrophoresis at 120 V for 15 minutes, then adjust the voltage to 180 V and continue electrophoresis until the loading buffer reaches the lowest end of the gel.
(2) Membrane transfer: After electrophoresis, remove the gel, cut a PVDF membrane […] of the appropriate size and activate the membrane with anhydrous methanol, and install the membrane transfer device in the following order from the negative pole to the positive pole: sponge cushion, gel, PVDF membrane, sponge cushion. After installing the membrane transfer device, place it in the corresponding membrane transfer tank, check the liquid level of the solution required for membrane transfer, turn on the power, and complete the membrane transfer after 3 transfer cycles.
3) Blocking: Place the membrane in QuickBlock™ Western Blocking Buffer and shake it for 20 minutes at room temperature.
4) Primary antibody incubation: After the blocking, discard the blocking solution, add the primary antibody diluted to the appropriate concentration, and gently shake the membrane overnight at 4° C. After completing the incubation, wash the membrane 4 times with 1×TBST for 5 min/time.
(5) Secondary antibody incubation: Add secondary antibody diluted to the appropriate concentration and gently shake the PVDF membrane for 1 hour at room temperature. After incubation, the membrane was washed 4 times with 1×TBST for 5 min/time.
6) Developing: Prepare the ECL developing solution before developing. Lay the PVDF membrane flat on a clean plastic wrap, add the developer solution to the membrane, and let it stand for 1 minute away from light. Subsequently, the PVDF membrane was imaged on a gel system.

[4] = test system: MCF-7 cells; assay: Annexin V/PI double staining for apoptosis detection; assay type: cell-based; settings: FIG. 6
Description: The surface of normal cells consists of lipids distributed asymmetrically on the inner and outer leaflets of the plasma membrane. One of them, phosphatidylserine (PS), is normally distributed only on the inner leaflet of the plasma membrane, and is therefore exposed only to the cytoplasm. However, when cells undergo apoptosis, PS is exposed on the outer leaflets of the plasma membrane. Annexin V is a phospholipid-binding protein capable of binding to PS. Therefore, fluorescently labeled Annexin V can be used to detect PS exposed to the outer leaflets of early apoptotic cells. By co-staining with propidium iodide (PI), Annexin V-PI can distinguish normal living cells, early apoptotic cells, and late apoptotic cells. Cell treatment: MCF-7 cells in the logarithmic growth phase were taken for the experiment. Cells were inoculated in six-well plates at a density of 5.0×10^5 cells/per well and incubated at 37° C. for 24 hours. Cells were treated with Example PROTAC drug AS2 and PROTAC prodrug A1 for 3 h, followed by X-ray irradiation, and cells continued to be cultured until 48 h after completion of irradiation. Cell collection: Collect the culture medium in a 1.5 mL centrifuge tube for spare. […] After incubation for 15 min at room temperature away from light, fluorescence detection was carried out by flow cytometry.

## Cc1ncsc1-c1ccc([C@H](C)NC(=O)[C@@H]2C[C@@H](OC(=O)OCc3c(F)c(F)c(N=[N+]=[N-])c(F)c3F)CN2C(=O)[C@H](NC(=O)COCCOCCOCCNC(=O)C[C@@H]2N=C(c3ccc(Cl)cc3)c3c(sc(C)c3C)-n3c(C)nnc32)C(C)(C)C)cc1 [Compound A1]
[1]; compound 3 h, then X-rays 10 Gy or 30 Gy, 72 h after irradiation, read-out: Irradiation with 10 Gy or 30 Gy IC50
  IC50: 122 nM
[1]; no irradiation, 72 h incubation, read-out: Radiation-free IC50
  IC50: 1020 nM
[2]; X-ray 5 Gy 3 hours after drug injection
  tumor growth (tumor volume): enhance the efficacy of radiation therapy
[2]; no irradiation, compared with PBS group
  tumor growth (tumor volume): failed to inhibit the tumor growth
[3]; co-treated with X-ray irradiation, 10 nM prodrug, FIG. 5
  BRD4 degradation: > 50%
[3]; co-treated with X-ray irradiation, FIG. 5
  degradation activity on BRD4 with X-ray irradiation: significantly degraded
[3]; no irradiation, 0-300 nM, FIG. 4
  degradation activity on BRD4 prior to activation: failed to degrade BRD4
[4]; X-rays and compound together, 48 h after irradiation
  ability to induce apoptosis: significantly elevated early apoptotic and late apoptotic cells
[4]; without X-ray irradiation
  ability to induce apoptosis: comparable to that of control DMSO
